Experimental findings from ChEMBL document CHEMBL4811278, “Discovery of novel modulators for the PPARα (peroxisome proliferator activated receptor α): Potential therapies for nonalcoholic fatty liver disease” (Bioorg Med Chem, 2021) are described below.

Series [1] has as its system Mus musculus. Kind of series: Hypolipidemic activity in high fat diet-induced nonalcoholic steatohepatitis C57BL/6J mouse model assessed as reduction in plasma triglyceride level at 3 mg/kg, po administered via gavage and measured after 24 hrs. Type of series: functional.
Series [2] has as its target T1, Peroxisome proliferator-activated receptor alpha (Mus musculus) (UniProt P23204).
T1 sequence (whole entry): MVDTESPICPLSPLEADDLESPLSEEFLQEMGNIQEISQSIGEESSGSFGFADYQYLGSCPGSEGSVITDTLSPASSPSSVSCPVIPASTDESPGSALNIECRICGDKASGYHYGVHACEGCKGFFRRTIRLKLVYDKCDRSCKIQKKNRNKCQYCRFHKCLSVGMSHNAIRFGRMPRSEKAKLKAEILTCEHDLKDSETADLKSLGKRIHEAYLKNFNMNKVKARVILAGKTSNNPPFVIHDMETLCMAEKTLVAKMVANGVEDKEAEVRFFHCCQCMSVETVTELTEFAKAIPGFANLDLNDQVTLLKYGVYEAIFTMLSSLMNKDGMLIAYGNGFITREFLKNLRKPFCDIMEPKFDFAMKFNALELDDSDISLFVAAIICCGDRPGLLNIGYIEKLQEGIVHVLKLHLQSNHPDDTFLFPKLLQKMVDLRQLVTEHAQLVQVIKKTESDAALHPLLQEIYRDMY
As to the kind of experiment: In vivo agonist activity at PPARalpha in high fat diet-induced nonalcoholic steatohepatitis C57BL/6J mouse model assessed as increase in Cyp4a3 mRNA expression in liver administered at 3 mg/kg, po administered once daily for 7 days by quantitative real time PCR analysis. Type of series: functional, organism-based. The note with it: time 7.0 day. On the technique in general: In qPCR the cycle at which signal appears reflects the starting amount.

Series [3] in a line: Toxicity in C57BL/6J mouse assessed as reduction in body weight measured after 72 hrs. The note with it: in vivo.
Series [4] addresses T1, Peroxisome proliferator-activated receptor alpha (Mus musculus). Kind of series: In vivo agonist activity at PPARalpha in high fat diet-induced nonalcoholic steatohepatitis C57BL/6J mouse model assessed as increase in mCPT1A gene expression in liver at 3 mg/kg, po administered once daily for 7 days and measured at >3 days by quantitative real time PCR analysis. Type of series: functional, organism-based. The note with it: time day >3.

Series [5] has the same target. Kind of series: In vivo agonist activity at PPARalpha in high fat diet-induced nonalcoholic steatohepatitis C57BL/6J mouse model assessed as increase in ACOX1 mRNA expression in liver administered at 3 mg/kg, po administered once daily for 7 days by quantitative real time PCR analysis. It counts as functional, organism-based. The note with it: time 7.0 day.
The subject of series [6] is Mus musculus. Kind of series: Upregulation of PPARalpha expression in liver of high fat diet-induced nonalcoholic steatohepatitis C57BL/6J mouse model at 3 mg/kg, po and measured after 24 hrs by quantitative real time PCR analysis. It counts as functional, organism-based.
Series [7] concerns the target T1, Peroxisome proliferator-activated receptor alpha (Mus musculus). As to the kind of experiment: In vivo agonist activity at PPARalpha in high fat diet-induced nonalcoholic steatohepatitis C57BL/6J mouse model assessed as trans-repression of ApoC3 mRNA expression in liver administered at 3 mg/kg, po and measured after 24 hrs by quantitative real time PCR analysis. It counts as functional, organism-based.

In series [8] the target is T2, Peroxisome proliferator-activated receptor delta (Homo sapiens, UniProt Q03181).
T2 sequence (Q03181 whole entry): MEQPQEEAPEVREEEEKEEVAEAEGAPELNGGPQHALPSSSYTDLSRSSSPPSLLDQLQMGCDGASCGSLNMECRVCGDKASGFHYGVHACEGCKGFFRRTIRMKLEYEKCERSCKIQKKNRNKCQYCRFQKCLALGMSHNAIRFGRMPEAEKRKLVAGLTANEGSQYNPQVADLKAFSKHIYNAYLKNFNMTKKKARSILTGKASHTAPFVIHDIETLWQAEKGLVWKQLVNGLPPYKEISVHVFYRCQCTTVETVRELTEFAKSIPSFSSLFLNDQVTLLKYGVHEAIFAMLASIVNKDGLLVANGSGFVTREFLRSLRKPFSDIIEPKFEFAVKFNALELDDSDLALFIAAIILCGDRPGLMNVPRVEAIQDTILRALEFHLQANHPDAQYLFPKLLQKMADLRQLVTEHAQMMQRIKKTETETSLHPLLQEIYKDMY
Kind of series: Agonist activity at Gal4-fused human PPARdelta expressed in monkey CV1 cells assessed as receptor transactivation incubated for 45 hrs by luciferase reporter gene assay. Type of series: cell-based, CV-1. A general note: A reporter such as luciferase makes a cellular process visible.

Series [9] concerns the target T3, Peroxisome proliferator-activated receptor alpha (Homo sapiens, UniProt Q07869).
T3 sequence (Q07869 whole entry): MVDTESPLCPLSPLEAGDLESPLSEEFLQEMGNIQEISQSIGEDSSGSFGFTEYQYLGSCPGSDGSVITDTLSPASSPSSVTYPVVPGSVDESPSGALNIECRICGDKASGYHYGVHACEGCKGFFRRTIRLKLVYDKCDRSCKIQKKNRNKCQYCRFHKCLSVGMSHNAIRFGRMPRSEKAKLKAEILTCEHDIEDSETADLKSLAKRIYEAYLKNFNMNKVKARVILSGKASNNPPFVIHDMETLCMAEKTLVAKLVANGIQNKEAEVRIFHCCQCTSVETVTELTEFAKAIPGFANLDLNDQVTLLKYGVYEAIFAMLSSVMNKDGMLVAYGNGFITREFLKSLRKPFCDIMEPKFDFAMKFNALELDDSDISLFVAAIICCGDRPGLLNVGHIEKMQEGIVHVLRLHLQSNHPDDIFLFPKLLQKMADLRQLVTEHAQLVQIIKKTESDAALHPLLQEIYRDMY
Kind of series: Agonist activity at Gal4-fused human PPARalpha co-expressed with RXRalpha in monkey CV1 cells assessed as PPRE transcriptional activation incubated for 45 hrs by luciferase reporter gene assay. Type of series: cell-based, CV-1.

The test system of series [10] is Mus musculus. Kind of series: Hypolipidemic activity in high fat diet-induced nonalcoholic steatohepatitis C57BL/6J mouse model assessed as reduction in hepatic […] content at 3 mg/kg, po administered once daily via gavage for 7 days. It counts as functional, organism-based. The note with it: time 7.0 day.
Series [11] addresses T1, Peroxisome proliferator-activated receptor alpha (Mus musculus). Kind of series: In vivo agonist activity at PPARalpha in high fat diet-induced nonalcoholic steatohepatitis C57BL/6J mouse model assessed as increase in mACADM gene expression in liver at 3 mg/kg, po administered once daily for 7 days by quantitative real time PCR analysis. The note with it: time 7.0 day. Type of series: functional, organism-based.

Series [12] concerns Mus musculus. Kind of series: Hypolipidemic activity in wild type high fat diet-induced nonalcoholic steatohepatitis C57BL/6J mouse model assessed as reduction in plasma triglyceride levels at 3 mg/kg, po measured after 72 hrs. Type of series: functional, organism-based.
Series [13] has as its system Mus musculus. Kind of series: Hypolipidemic activity in high fat diet-induced nonalcoholic steatohepatitis C57BL/6J mouse model assessed as reduction in plasma free fatty acid level at 3 mg/kg, po administered once daily via gavage for 7 days. Type of series: functional. The note with it: 168 h, time 7 day.

Active and inactive are the calls of the source. The calls are words filed in the database; no cut-off is given here.

In the case of `COc1ccc(Cn2c(CCCc3ccc(OC(C)(C)C(=O)O)cc3)nn(Cc3ccc(C)cc3)c2=O)cc1`, the results for the inhibition in vivo at 3 mg/kg in series [1] and in [13] were at least 50% and at least 60%, respectively. Besides, the outcome in [2], in series [4], in series [5], in series [6], in [7] and in series [10] was Active. The outcome in series [11] and in [12] was Active. Besides, the Activity entry in series [3] was “Non-Toxic”. The half-maximal effective concentration (EC50) in series [8] is above 10000 nM; in series [9], 0.87 nM.

Usually inhibition in vivo stands for the percentage by which the read-out fell short of the control. The term EC50 denotes the concentration at which the effect is half-maximal.
